Reference: patent US8518966B2, “Amidoalkyl-8-azabicyclo[3.2.1]octane compounds as mu opioid receptor antagonists” (Theravance, Inc., priority 2007, dated 2013)

What was measured:
[1] = target: T1, human mu opioid receptor (Homo sapiens, UniProt P35372); test: biochemical; type: binding
T1 construct: host or cells: CHO-K1

[2] = target: T1, human mu opioid receptor; test: biochemical; details: read-out: intrinsic activity (IA), bound GTP-Eu relative to DAMGO (IA=100)
[3] = system: loperamide-induced delayed gastric emptying; test: Rat gastric emptying assay (reversal of loperamide-induced delayed gastric emptying); type: in vivo; details: administered orally, loperamide 1 mg/kg s.c.

T1 sequence (P35372 whole entry): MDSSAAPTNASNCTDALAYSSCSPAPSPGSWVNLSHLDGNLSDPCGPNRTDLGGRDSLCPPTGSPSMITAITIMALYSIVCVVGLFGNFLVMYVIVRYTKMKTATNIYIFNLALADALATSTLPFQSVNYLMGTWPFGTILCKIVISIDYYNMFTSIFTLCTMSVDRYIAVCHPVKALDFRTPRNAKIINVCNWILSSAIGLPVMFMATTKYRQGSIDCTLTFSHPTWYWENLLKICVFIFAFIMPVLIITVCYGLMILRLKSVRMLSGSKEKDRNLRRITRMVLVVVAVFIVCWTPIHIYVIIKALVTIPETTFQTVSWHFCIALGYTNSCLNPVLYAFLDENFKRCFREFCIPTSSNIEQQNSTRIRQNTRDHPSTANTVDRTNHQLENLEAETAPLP

SMILES | Ki [1] [nM] | Emax [2] [%] | ID50, dose required for 50% reversal of the effects of loperamide [3] [mg/kg] | pKi at the human mu opioid receptor [1]
CCC(CC)CN(CCCN1[C@@H]2CC[C@H]1C[C@@H](c1cccc(C(N)=O)c1)C2)C(=O)CS(C)(=O)=O [Example 6, 3-endo-(8-{3-[(2-ethylbutyl)-(2-methanesulfonyl-acetyl)amino]propyl}-8-azabicyclo[3.2.1]oct-3-yl)-benzamide] | 0.126 | 1 | – | –
CCC(CC)CN(CCN1[C@@H]2CC[C@H]1C[C@@H](c1cccc(C(N)=O)c1)C2)C(=O)CS(C)(=O)=O [Example 7, 3-endo-(8-{2-[(2-ethylbutyl)-(2-methanesulfonyl-acetyl)amino]ethyl}-8-azabicyclo[3.2.1]oct-3-yl)-benzamide] | 0.158 | 3 | 0.53 | –
CCC(CC)CN(CCCN1[C@@H]2CC[C@H]1C[C@@H](c1cccc(C(N)=O)c1)C2)C(=O)CO [Example 1, 3-endo-(8-{3-[(2-ethylbutyl)-(2-hydroxyacetyl)-amino]propyl}-8-aza-bicyclo[3.2.1]oct-3-yl)-benzamide] | – | 3 | 0.29 | 10.0
